Assay results as given in patent US20240190860A1, “8-CYCLO-SUBSTITUTED QUINAZOLINE DERIVATIVES AS LPA RECEPTOR 2 INHIBITORS” (CHIESI FARMACEUTICI S.p.A., priority 2021, published 2024).

Target: T1, human recombinant LPA2 expressed in CHO cells (Homo sapiens, UniProt Q9HBW0)
T1 construct: expressed in transfected cells; host or cells: CHO cells (CHO-hLPA2 cell line)
Test: FLIPR calcium mobilization assay, LPA2 antagonism in CHO-hLPA2 cells
Assay type: cell-based
Conditions: CHO-hLPA2 cells, inhibition of LPA EC80 Ca2+ response, 30 min pre-incubation; read-out: LPA2 IC50
Procedure: The effectiveness of compounds of the present invention as LPA2 antagonist can be determined at the human recombinant LPA2 expressed in CHO cells, using a FLIPR assay in 384 well format.
CHO-hLPA2 cell lines are cultured in a humidified incubator at 5% C02 in DMEM/F-12 (1:1) MIXTURE with 2 mM Glutamax, supplemented with 10% of Foetal Bovine Serum, 1 mM Sodium Pyruvate, 11 mM Hepes and 1× Penicillin/Streptomycin. CHO hLPA2 cells are seeded into black walled clear-bottom 384-well plates (#781091, Greiner Bio-One GmbH) at a density of 7,500 cells per well in 50 μl culture media and grown overnight in a 37° C. humidified CO2-incubator. Serial dilutions (1:3 or 1:4, 11 points CRC) of compounds are performed in 100% DMSO at 200× the final concentration. The compounds are diluted 1:50 prior to the experiment with Assay Buffer (20 mM HEPES, 145 mM NaCl, 5 mM KCl, 5.5 mM glucose, 1 mM MgCl2 and 2 mM CaCl2, pH 7.4 containing 0.01% Pluronic F-127) to obtain a solution corresponding to […] the final concentration in the assay (4×, 2% DMSO). The final concentration of DMSO in the assay will be 0.5% in each well. Medium is removed by aspiration and cells are then incubated with 30 μl of a loading solution containing 5 μM of the cytoplasmic Ca2+ indicator Cal-520 AM in Assay Buffer containing 2.5 mM probenecid for 30 min at 37° C. incubator (cell loading). The loaded cell plates are transferred into the FLIPR instrument and calcium responses are monitored during the on-line addition protocols. For testing of compounds, after the cell loading, 10 μl/well of 4× antagonists' solution was added onto the cells. After 30 min pre-incubation (at 37° C.), 10 μl/well of 5× concentrated LPA EC80 was added and Ca2+ mobilization responses was followed during the on-line addition protocol. Intracellular peak fluorescence values subtracted by baseline fluorescence are exported and analysed to determine IC50 values, respectively. The calcium response is expressed as percentage of the maximal inhibition of the EC80 agonist response.
The raw data (peak height expressed as relative fluorescence units) are normalized and transformed into “percent of inhibition”. Curve fitting and pIC50 (−LogIC50) estimations are carried out using a four-parameter logistic model using XLfit Software.

T1 sequence (Q9HBW0 whole entry): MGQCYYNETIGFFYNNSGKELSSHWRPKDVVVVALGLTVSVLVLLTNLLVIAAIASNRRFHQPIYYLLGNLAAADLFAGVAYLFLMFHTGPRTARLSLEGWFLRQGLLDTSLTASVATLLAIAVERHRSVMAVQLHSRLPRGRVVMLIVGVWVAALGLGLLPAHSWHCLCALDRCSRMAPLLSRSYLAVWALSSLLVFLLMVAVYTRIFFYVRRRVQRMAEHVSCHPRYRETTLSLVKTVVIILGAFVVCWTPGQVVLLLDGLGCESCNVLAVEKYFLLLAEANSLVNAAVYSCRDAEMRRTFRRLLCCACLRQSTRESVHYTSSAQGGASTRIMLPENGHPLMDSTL

| SMILES | IC50 [µM] |
| --- | --- |
| COC(=O)Nc1nc(C)c(S(=O)(=O)N2CCN(C[C@H](C)Nc3ncnc4c(-c5ccc6c(c5)CNC6)cccc34)CC2)s1 [Example 57, methyl N-[5-({4-[(2S)-2-{[8-(2,3-dihydro-1H-isoindol-5-yl)quinazolin-4-yl]amino}propyl]piperazin-1-yl}sulfonyl)-4-methyl-1,3-thiazol-2-yl]carbamate] | < 0.01 |
| C[C@@H](CN1CCN(S(=O)(=O)c2ccc3[nH]c(=O)sc3c2)CC1)Nc1ncnc2c(-c3cccnc3)cccc12 [Example 38, 6-({4-[(2S)-2-{[8-(pyridin-3-yl)quinazolin-4-yl]amino}propyl]piperazin-1-yl}sulfonyl)-2,3-dihydro-1,3-benzothiazol-2-one] | < 0.01 |
| C[C@@H](CN1CCN(S(=O)(=O)c2ccc3[nH]c(=O)cnc3c2)CC1)Nc1ncnc2c(-c3cccnc3)cccc12 [Example 59, 6-({4-[(2S)-2-{[8-(pyridin-3-yl)quinazolin-4-yl]amino}propyl]piperazin-1-yl}sulfonyl)-1,2-dihydroquinoxalin-2-one] | 0.01 to 0.1 |
| COC(=O)Nc1nc(C)c(S(=O)(=O)N2CCN(C[C@H](C)Nc3ncnc4c(-c5c(C)n[nH]c5C)cccc34)CC2)s1 [Example 27, methyl N-[5-({4-[(2S)-2-{[8-(3,5-dimethyl-1H-pyrazol-4-yl)quinazolin-4-yl]amino}propyl]piperazin-1-yl}sulfonyl)-4-methyl-1,3-thiazol-2-yl]carbamate] | < 0.01 |
| C[C@@H](CN1CCN(S(=O)(=O)c2ccc(Cl)c(Cl)c2)CC1)Nc1ncnc2c(-c3cccc(CN(C)C)c3)cccc12 [Example 46, N-[(2S)-1-[4-(3,4-dichlorobenzenesulfonyl)piperazin-1-yl]propan-2-yl]-8-{3-[(dimethylamino)methyl]phenyl}quinazolin-4-amine] | < 0.01 |
| C[C@@H](CN1CCN(S(=O)(=O)c2ccc3[nH]c(=O)sc3c2)CC1)Nc1ncnc2c(-c3cccc(CN(C)C)c3)cccc12 [Example 45, 6-({4-[(2S)-2-[(8-{3-[(dimethylamino)methyl]phenyl}quinazolin-4-yl)amino]propyl]piperazin-1-yl}sulfonyl)-2,3-dihydro-1,3-benzothiazol-2-one] | < 0.01 |
| Cc1cc(-c2ccc(S(=O)(=O)N3CCN(C[C@H](C)Nc4ncnc5c(-c6cccc(CN7CCCC7)c6)cccc45)CC3)s2)on1 [Example 16, N-[(2S)-1-(4-{[5-(3-methyl-1,2-oxazol-5-yl)thiophen-2-yl]sulfonyl}piperazin-1-yl)propan-2-yl]-8-{3-[(pyrrolidin-1-yl)methyl]phenyl}quinazolin-4-amine] | < 0.01 |
| C[C@@H](CN1CCN(S(=O)(=O)c2ccc(F)c(F)c2)CC1)Nc1ncnc2c(-c3cccnc3)cccc12 [Example 52, N-[(2S)-1-[4-(3,4-difluorobenzenesulfonyl)piperazin-1-yl]propan-2-yl]-8-(pyridin-3-yl)quinazolin-4-amine] | 0.01 to 0.1 |
| Cc1cc(-c2ccc(S(=O)(=O)N3CCN(C[C@H](C)Nc4ncnc5c(-c6c(C)noc6C)cccc45)CC3)s2)on1 [Example 3, 8-(3,5-dimethyl-1,2-oxazol-4-yl)-N-[(2S)-1-(4-{[5-(3-methyl-1,2-oxazol-5-yl)thiophen-2-yl]sulfonyl}piperazin-1-yl)propan-2-yl]quinazolin-4-amine] | < 0.01 |
| COC(=O)Nc1nc(C)c(S(=O)(=O)N2CCN(C[C@H](C)Nc3ncnc4c(-c5ccc(C)nc5)cccc34)CC2)s1 [Example 28, methyl N-[4-methyl-5-({4-[(2S)-2-{[8-(6-methylpyridin-3-yl)quinazolin-4-yl]amino}propyl]piperazin-1-yl}sulfonyl)-1,3-thiazol-2-yl]carbamate] | < 0.01 |
| COC(=O)Nc1nc(C)c(S(=O)(=O)N2CCN(C[C@H](C)Nc3ncnc4c(-c5cccc(CN6CCCC6)c5)cccc34)CC2)s1 [Example 22, methyl N-[4-methyl-5-({4-[(2S)-2-[(8-{3-[(pyrrolidin-1-yl)methyl]phenyl}quinazolin-4-yl)amino]propyl]piperazin-1-yl}sulfonyl)-1,3-thiazol-2-yl]carbamate] | < 0.01 |
| Cc1cc(-c2ccc(S(=O)(=O)N3CCN(C[C@H](C)Nc4ncnc5c(-c6cncnc6)cccc45)CC3)s2)on1 [Example 11, N-[(2S)-1-(4-{[5-(3-methyl-1,2-oxazol-5-yl)thiophen-2-yl]sulfonyl}piperazin-1-yl)propan-2-yl]-8-(pyrimidin-5-yl)quinazolin-4-amine] | < 0.01 |

Continued, values first:

| IC50 [µM] | SMILES |
| --- | --- |
| 0.01 to 0.1 | COC(=O)Nc1nc(C)c(S(=O)(=O)N2CCN(C[C@H](C)Nc3ncnc4c(-c5ccc(F)c(Cl)n5)cccc34)CC2)s1 [Example 74, methyl N-[5-({4-[(2S)-2-{[8-(6-chloro-5-fluoropyridin-2-yl)quinazolin-4-yl]amino}propyl]piperazin-1-yl}sulfonyl)-4-methyl-1,3-thiazol-2-yl]carbamate] |
| < 0.01 | Cc1nc(C)c(-c2cccc3c(N[C@@H](C)CN4CCN(S(=O)(=O)c5ccc6[nH]c(=O)sc6c5)CC4)ncnc23)s1 [Example 98, 6-({4-[(2S)-2-{[8-(2,4-dimethyl-1,3-thiazol-5-yl)quinazolin-4-yl]amino}propyl]piperazin-1-yl}sulfonyl)-2,3-dihydro-1,3-benzothiazol-2-one] |
| < 0.01 | Cc1nc(NC(=O)CN(C)C)sc1S(=O)(=O)N1CCN(C[C@H](C)Nc2ncnc3c(-c4cn(C)nc4C(F)(F)F)cccc23)CC1 [Example 86, 2-(dimethylamino)-N-[4-methyl-5-({4-[(2S)-2-({8-[1-methyl-3-(trifluoromethyl)-1H-pyrazol-4-yl]quinazolin-4-yl}amino)propyl]piperazin-1-yl}sulfonyl)-1,3-thiazol-2-yl]acetamide] |
| < 0.01 | COC(=O)Nc1nc(C)c(S(=O)(=O)N2CCN(C[C@H](C)Nc3ncnc4c(-c5cccc(C)n5)cccc34)CC2)s1 [Example 71, methyl N-[4-methyl-5-({4-[(2S)-2-{[8-(6-methylpyridin-2-yl)quinazolin-4-yl]amino}propyl]piperazin-1-yl}sulfonyl)-1,3-thiazol-2-yl]carbamate] |
| < 0.01 | COC(=O)Nc1nc(C)c(S(=O)(=O)N2CCN(C[C@H](C)Nc3ncnc4c(-c5cncc(NC=O)c5)cccc34)CC2)s1 [Example 72, methyl N-[5-({4-[(2S)-2-{[8-(5-formamidopyridin-3-yl)quinazolin-4-yl]amino}propyl]piperazin-1-yl}sulfonyl)-4-methyl-1,3-thiazol-2-yl]carbamate] |
| < 0.01 | COC(=O)Nc1nc(C)c(S(=O)(=O)N2CCN(C[C@H](C)Nc3ncnc4c(-c5cccc(CN(C)C)c5F)cccc34)CC2)s1 [Example 90, methyl N-[5-({4-[(2S)-2-[(8-{3-[(dimethylamino)methyl]-2-fluorophenyl}quinazolin-4-yl)amino]propyl]piperazin-1-yl}sulfonyl)-4-methyl-1,3-thiazol-2-yl]carbamate] |
| < 0.01 | COCC(=O)Nc1ncc(S(=O)(=O)N2CCN(C[C@H](C)Nc3ncnc4c(-c5cccc(CN(C)C)c5)cccc34)CC2)s1 [Example 81, N-[5-({4-[(2S)-2-[(8-{3-[(dimethylamino)methyl]phenyl}quinazolin-4-yl)amino]propyl]piperazin-1-yl}sulfonyl)-1,3-thiazol-2-yl]-2-methoxyacetamide] |
| < 0.01 | COC(=O)Nc1nc(C)c(S(=O)(=O)N2CCN(C[C@H](C)Nc3ncnc4c(-c5ccc(CN(C)C)nc5)cccc34)CC2)s1 [Example 60, methyl N-[5-({4-[(2S)-2-[(8-{6-[(dimethylamino)methyl]pyridin-3-yl}quinazolin-4-yl)amino]propyl]piperazin-1-yl}sulfonyl)-4-methyl-1,3-thiazol-2-yl]carbamate] |
| < 0.01 | Cc1nc2ccc(S(=O)(=O)N3CCN(C[C@H](C)Nc4ncnc5c(-c6cccnc6)cccc45)CC3)cc2s1 [Example 83, N-[(2S)-1-{4-[(2-methyl-1,3-benzothiazol-6-yl)sulfonyl]piperazin-1-yl}propan-2-yl]-8-(pyridin-3-yl)quinazolin-4-amine] |
| < 0.01 | COC(=O)Nc1nc(C)c(S(=O)(=O)N2CCN(C[C@H](C)Nc3ncnc4c(-c5ccc6c(c5)CN(C)C6)cccc34)CC2)s1 [Example 80, methyl N-[4-methyl-5-({4-[(2S)-2-{[8-(2-methyl-2,3-dihydro-1H-isoindol-5-yl)quinazolin-4-yl]amino}propyl]piperazin-1-yl}sulfonyl)-1,3-thiazol-2-yl]carbamate] |
